The source made the active and inactive calls. The rule behind the calls is not given here.
Columns and labels:
MDA-MB-231 [1] = experiment: Antiproliferative activity against human MDA-MB-231 cells assessed as inhibition rate at 1 uM incubated for 72 hrs by MTT assay; assay type: functional
MDA-MB-231 [2] = experiment: Antiproliferative activity against human MDA-MB-231 cells assessed as inhibition rate at 100 uM incubated for 72 hrs by MTT assay; assay type: functional
MDA-MB-231 [3] = experiment: Antiproliferative activity against human MDA-MB-231 cells assessed as inhibition rate at 10 uM incubated for 72 hrs by MTT assay; assay type: functional
MDA-MB-231 [4] = experiment: Antiproliferative activity against human MDA-MB-231 cells assessed as inhibition rate incubated for 72 hrs by MTT assay; assay type: functional, cell-based; conditions: MDA-MB-231, 72 h
A549 = experiment: Antiproliferative activity against human A549 cells assessed as inhibition rate incubated for 72 hrs by MTT assay; assay type: functional, cell-based; conditions: A549, 72 h
HCT-116 = experiment: Antiproliferative activity against human HCT-116 cells assessed as inhibition rate incubated for 72 hrs by MTT assay; assay type: functional, cell-based; conditions: HCT-116, 72 h
MDA-MB-435 = experiment: Antiproliferative activity against human MDA-MB-435 cells assessed as inhibition rate incubated for 72 hrs by MTT assay; assay type: functional, cell-based; conditions: MDA-MB-435, 72 h
[5] = molecular target: T1, DNA topoisomerase 1 (Homo sapiens) (UniProt P11387); experiment: Inhibition of topoisomerase 1 (unknown origin) assessed as relaxation of supercoiled plasmid pBR322 DNA upto 500 uM incubated for 15 mins by agarose gel electrophoresis; conditions: dose microM <=500, time 15.0 min
T1 sequence (whole entry): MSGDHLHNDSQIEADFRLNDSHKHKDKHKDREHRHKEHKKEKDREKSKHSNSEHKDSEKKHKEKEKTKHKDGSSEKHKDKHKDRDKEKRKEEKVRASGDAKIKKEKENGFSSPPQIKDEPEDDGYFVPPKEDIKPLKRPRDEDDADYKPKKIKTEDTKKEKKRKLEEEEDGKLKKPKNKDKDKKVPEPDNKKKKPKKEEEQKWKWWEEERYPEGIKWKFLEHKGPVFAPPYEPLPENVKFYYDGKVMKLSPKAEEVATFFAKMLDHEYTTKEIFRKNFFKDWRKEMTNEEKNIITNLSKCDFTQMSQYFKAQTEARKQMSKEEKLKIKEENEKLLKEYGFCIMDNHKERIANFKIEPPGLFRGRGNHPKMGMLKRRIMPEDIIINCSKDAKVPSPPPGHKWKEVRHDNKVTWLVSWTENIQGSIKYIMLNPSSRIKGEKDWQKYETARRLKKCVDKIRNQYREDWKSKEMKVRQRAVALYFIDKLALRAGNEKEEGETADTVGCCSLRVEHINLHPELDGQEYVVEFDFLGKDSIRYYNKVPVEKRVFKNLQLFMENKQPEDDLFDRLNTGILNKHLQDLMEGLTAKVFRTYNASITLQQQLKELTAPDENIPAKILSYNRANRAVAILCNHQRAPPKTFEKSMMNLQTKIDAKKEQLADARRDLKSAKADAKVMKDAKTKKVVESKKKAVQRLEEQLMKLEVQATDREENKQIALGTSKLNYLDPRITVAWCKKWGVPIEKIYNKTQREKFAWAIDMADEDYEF

MCF-10A = experiment: cells; assay type: ADME, cell-based; conditions: Homo sapiens, 72 h
Description: Antiproliferative activity against human MCF-10A cells assessed as inhibition rate incubated for 72 hrs by MTT assay

[6] = Selectivity index, ratio of IC50 for human MCF-10A cells to IC50 for human MDA-MB-231 cells
HEK293 = experiment: cells; assay type: ADME, cell-based; conditions: Homo sapiens, HEK293, 72 h
Description: Antiproliferative activity against HEK293 cells assessed as inhibition rate incubated for 72 hrs by MTT assay

H22 = experiment: Antiproliferative activity against mouse H22 cells assessed as inhibition rate incubated for 72 hrs by MTT assay; assay type: functional, cell-based; conditions: H22, 72 h
HepG2 = experiment: Antiproliferative activity against human HepG2 cells assessed as inhibition rate incubated for 72 hrs by MTT assay; assay type: functional, cell-based; conditions: HepG2, 72 h
4T1 = experiment: Antiproliferative activity against mouse 4T1 cells assessed as inhibition rate incubated for 72 hrs by MTT assay; assay type: functional, cell-based; conditions: 4T1, 72 h
[7] = molecular target: T1, DNA topoisomerase 1 (Homo sapiens); experiment: Induction of topoisomerase 1-DNA cleavable complex in human MDA-MB-231 cells assessed as increase in cleavable complex by measuring SDS-K+ precipitable complex at 15 uM measured up to 15 hrs by liquid scintillation counting analysis; assay type: cell-based; conditions: time hrs <=15
MDA-MB-231 [8] = experiment: Antiproliferative activity against human MDA-MB-231 cells transfected with siRNA-Top1 assessed as cell viability by MTT assay; assay type: functional, cell-based
[9] = Ratio of IC50 for antiproliferative activity against human MDA-MB-231 cells transfected with siRNA-Top1 to IC50 for antiproliferative activity against human MDA-MB-231 cells transfected with siRNA-Ctrl assessed as cell viability by MTT assay; assay type: functional
MCF7 = experiment: Antiproliferative activity against human MCF7 cells assessed as inhibition rate incubated for 72 hrs by MTT assay; assay type: functional, cell-based; conditions: MCF7, 72 h
MDA-MB-231 [10] = experiment: Antiproliferative activity against human MDA-MB-231 cells transfected with siRNA-Ctrl assessed as cell viability by MTT assay; assay type: functional, cell-based
LoVo = experiment: Antiproliferative activity against human LoVo cells assessed as inhibition rate incubated for 72 hrs by MTT assay; assay type: functional, cell-based

| Compound | inhibition at 1 µM (MDA-MB-231 [1]) [%] | inhibition at 100 µM (MDA-MB-231 [2]) [%] | inhibition at 10 µM (MDA-MB-231 [3]) [%] | IC50 (MDA-MB-231 [4]) [nM] | IC50 (A549) [µM] | IC50 (HCT-116) [µM] | IC50 (MDA-MB-435) [nM] | other results |
| --- | --- | --- | --- | --- | --- | --- | --- | --- |
| COc1ccc2oc3c(c2c1)CCN1C(=O)c2cc(Cl)cc(Cl)c2OC31 (centres undefined) | 8.6 | 12.1 | 5.5 |  |  |  |  |  |
| Cc1cccc2c1OC1c3oc4ccc(O)cc4c3CCN1C2=O (centres undefined) | 60.6 | 97.4 | 66.5 | 2520 | 6.79 | 3.45 | 1950 | Activity [5]: inactive |
| O=C1c2ccccc2OC2c3oc4ccc(O)cc4c3CCN12 (centres undefined) | 55.1 | 96.5 | 61.2 | 860 | 4.28 | 1.26 | 470 | Activity [5]: inactive |
| CN1c2ccccc2C(=O)N2Cc3cc4cc(O)ccc4nc3C21 (centres undefined) | 6.3 | 89.9 | 19.8 |  |  |  |  |  |
| Cc1ccc2c(c1)OC1c3oc4ccc(O)cc4c3CCN1C2=O (centres undefined) | 62.7 | 94 | 64.8 | 1050 | 10.5 | 4.71 | 1140 | Activity [5]: inactive |
| COC(=O)c1ccc2[nH]c3c(c2c1)CCN1C(=O)c2ccccc2OC31 (centres undefined) | 12.6 | 45.2 | 15.7 |  |  |  |  |  |
| COc1ccc2oc3c(c2c1)CCN1C(=O)c2cc(Br)ccc2OC31 (centres undefined) | 6.8 | 13 | 9.2 |  |  |  |  |  |
| O=C1c2cc(Br)ccc2OC2c3oc4ccc(O)cc4c3CCN12 (centres undefined) | 75.7 | 94.5 | 83.1 | 1160 | 4.14 | 1.71 | 810 | Activity [5]: inactive |
| COc1ccc2oc3c(c2c1)CCN1C(=O)c2cc(Cl)ccc2OC31 (centres undefined) | 2.3 | 15.9 | 7.3 |  |  |  |  |  |
| COc1ccc2oc3c(c2c1)CCN1C(=O)c2cccc(C)c2OC31 (centres undefined) | 7.1 | 15 | 11.9 |  |  |  |  |  |
| COc1ccc2nc3c(cc2c1)CN1C(=O)c2ccccc2N(C)C31 (centres undefined) | 7.6 | 80.7 | 11.9 |  |  |  |  |  |
| O=C(O)c1ccc2[nH]c3c(c2c1)CCN1C(=O)c2ccccc2OC31 (centres undefined) | 9.7 | 39.6 | 11.2 |  |  |  |  |  |
| O=C1c2cc(Cl)cc(Cl)c2OC2c3oc4ccc(O)cc4c3CCN12 (centres undefined) | 32.7 | 96.9 | 59.5 | 3730 | 7.58 | 6.09 | 2330 | Activity [5]: inactive |
| CN1c2ccccc2C(=O)N2CCc3c([nH]c4ccccc34)C21 (centres undefined) | 38.9 | 73.3 | 53.3 | 13300 | 77.2 | 32.7 | 6300 | IC50 (MCF-10A): > 100000 nM; selectivity ratio ([6]; MCF-10A cells versus MDA-MB-231 cells): > 10.7; IC50 (HEK293): > 100 µM |
| CC[C@@]1(O)C(=O)OCc2c1cc1n(c2=O)Cc2cc3ccccc3nc2-1 [CAMPTOTHECIN] |  |  |  | 420 | 0.1 |  | 310 | IC50 (MCF-10A): 2190 nM; IC50 (H22): 540 nM; IC50 (HepG2): 110 nM; IC50 (4T1): 170 nM; Activity [7]: Active; selectivity ratio [6]: 5.2; IC50 (MDA-MB-231 [8]): > 6.4 µM; Ratio IC50 [9]: 24; IC50 (MCF7): 560 nM; IC50 (MDA-MB-231 [10]): 264 nM; IC50 (LoVo): 1540 nM |
| COc1ccc2oc3c(c2c1)CCN1C(=O)c2ccc(C)cc2OC31 (centres undefined) | 7.5 | 41.5 | 19.2 |  |  |  |  |  |
| COc1ccc2oc3c(c2c1)CCN1C(=O)c2ccccc2OC31 (centres undefined) | 6 | 36.6 | 10.6 |  |  |  |  |  |

Source: ChEMBL document CHEMBL5029185, “Discovery of Novel Polycyclic Heterocyclic Derivatives from Evodiamine for the Potential Treatment of Triple-Negative Breast Cancer” (J Med Chem, 2021)
